Experimental data reported in ChEMBL document CHEMBL1146151, “Polyoxometalates--a new class of potent ecto-nucleoside triphosphate diphosphohydrolase (NTPDase) inhibitors” (Bioorg Med Chem Lett, 2006).

Molecular target: T1, Ectonucleoside triphosphate diphosphohydrolase 2 (Rattus norvegicus) (UniProt O35795)
T1 sequence (whole entry): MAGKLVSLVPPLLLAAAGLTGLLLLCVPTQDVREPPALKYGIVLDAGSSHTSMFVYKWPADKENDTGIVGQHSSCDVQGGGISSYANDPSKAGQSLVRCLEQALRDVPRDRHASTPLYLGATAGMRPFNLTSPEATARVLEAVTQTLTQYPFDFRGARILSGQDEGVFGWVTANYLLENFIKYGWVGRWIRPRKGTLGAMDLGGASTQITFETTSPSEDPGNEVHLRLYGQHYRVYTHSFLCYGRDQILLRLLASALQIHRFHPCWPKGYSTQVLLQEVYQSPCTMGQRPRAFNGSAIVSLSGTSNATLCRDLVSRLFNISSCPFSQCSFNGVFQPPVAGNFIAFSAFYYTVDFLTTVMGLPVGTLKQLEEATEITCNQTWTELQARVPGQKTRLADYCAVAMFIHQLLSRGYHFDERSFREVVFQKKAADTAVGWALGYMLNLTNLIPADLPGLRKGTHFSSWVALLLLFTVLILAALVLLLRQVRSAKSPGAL
Conditions: CHO, 1 mM
Description: Inhibition of rat recombinant NTPDase2 expressed in CHO cells at 1 mM

CCN(CC)c1ncnc2c1ncn2[C@@H]1O[C@H](COP(=O)(O)OP(=O)(O)C(Br)(Br)P(=O)(O)O)[C@@H](O)[C@H]1O
inhibition: 50%
